Test results: patent US8741871B2, “Trehalose compound, method for producing same, and pharmaceutical product containing the compound” (priority 2008, dated 2014)

Assays:
[1] = system: Pseudomonas aeruginosa (Fhu-071115 strain); format: in vivo
Experimental: As a test compound, 1 mg of the compound synthesized by the method described in Production Example α-1 was weighed. An emulsion solution of the test compound was prepared in the same manner as described above.
Pseudomonas aeruginosa (Fhu-071115 strain) derived from patients was used, and it was prepared as follows.
L-broth was withdrawn with a 40-ml measuring pipette and was then added to a 200-ml flask, and the flask was then sealed with a sponge plug. At the same time, 5 ml of L-broth was added to each of two other screw-top test tubes. The thus prepared flask and screw-top test tubes were subjected to an autoclave at 121° C. for 20 minutes. After the L-broth medium had been cooled to a room temperature, Pseudomonas aeruginosa, which had been stored in an ultra low temperature freezer, was added into 40 ml of the L-broth the medium in a clean bench. The obtained mixture was shaken in an incubator overnight. Thereafter, the resultant was centrifuged at 9000 rpm for 15 minutes, and the supernatant was then removed. […] This process was carried out three times. Thereafter, 4.5 ml of sterilized normal saline solution was added to the resultant, and the mixture was then blended with the use of a Vortex mixer. The obtained solution was used as a strain stock solution. Using a 1000-fold diluted strain solution, the number of cells was counted with OneCell Counter. Thereafter, the strain stock solution was diluted to a desired concentration, and the thus diluted solution was then used in the subsequent test.
Mice were divided into two groups, and the following two types of experiments were carried out. • (A) The aforementioned emulsion solution containing the test compound (100 μg/mouse) was intraperitoneally administered to a group of three mice (ICR, 5-week-old). Three hours later, Pseudomonas aeruginosa (5.0×10^7 cells/mouse) was intraperitoneally administered to the mice. Thereafter, the condition of the mice was observed. (B) Pseudomonas aeruginosa (2.0×10^7 cells/mouse) was intraperitoneally administered to a group of three mice (ICR, 5-week-old). Three hours later, the aforementioned emulsion solution containing the test compound (100 μg/mouse) was intraperitoneally administered to the mice. Thereafter, the condition of the mice was observed.

[2] = system: mouse intraperitoneal macrophages; assay: Measurement of cytokine released from mouse intraperitoneal macrophages (ELISA); format: cell-based; settings: 100 μM test compound, two hours
Experimental: Mouse intraperitoneal macrophages, a 40 mM test compound solution, and an RPMI 1640 medium were prepared in the same manner as described above.
Macrophages were added to a TC-Plate, so that they became 80% confluent. The macrophages were incubated at 37° C. for 2 hours. Thereafter, the supernatant was discarded, and the cells were then washed with 500 μl of RPMI 1640 medium. This washing operation was repeatedly carried out two times. An emulsion solution of the test compound (final concentration: 100 μM) was allowed to act on the macrophages, and two hours later, the medium was transferred into another Eppendorf tube. […] This supernatant was used as a sample, and the released cytokines were analyzed using ELISA kit (IL-6, TNF-α Quantikine Immunoassay (R & D System (trademark)).

rabbit neutrophils [3] = format: cell-based
rabbit neutrophils [4] = assay: Measurement of amount of active oxygen released from rabbit neutrophils; format: cell-based; settings: 50 μM, 2 hours; FIG. 3
Experimental: 5 ml of the ACD solution was placed in a 20-ml syringe (injection needle [Nipro]), so that the inside of the syringe was entirely rinsed therewith. 20 ml of blood was collected from the central auricular artery of a rabbit using the syringe, and the collected blood was gently shaken upside down. Thereafter, the blood was dispensed into three centrifuge tubes (15 ml type; Falcon), and each tube was then subjected to centrifugation at 4° C. at 1,500 rpm for 5 minutes. Thereafter, the supernatant was recovered into a centrifuge tube (50 ml type; Falcon). A 1.2% dextran-PBS solution was added to the recovered supernatant in an amount equal the supernatant, and the obtained mixture was then gently shaken upside down. Thereafter, the mixture was left at a room temperature for 30 minutes or more. The emergence of an interface was confirmed, and the supernatant was placed in a new centrifuge tube (50 ml type; Falcon). […]
The influence of the test compound on the release of active oxygen from rabbit neutrophils was measured by the following procedures.
Neutrophils (1.0×10^5 cells/100 μl) were plated on a 96-well plate (Falcon). […] The obtained mixture was incubated at 37° C. for 2 hours, and the amount of active oxygen released was measured using a fluorescence measurement apparatus (Ex: 485 nm, Em: 535 nm).

Pseudomonas aeruginosa = format: in vivo; settings: 100 μg/mouse i.p., twenty-four hours later infection; blood fifteen hours after bacteria; FIG. 19
Experimental: Twenty-four hours later, the mice were infected with 3.0×10^10 CFU/mL Pseudomonas aeruginosa. Fifteen hours after administration of the bacteria, blood was collected from the heart using an injection with a needle tip containing a small amount of heparin, and 200 μL of whole blood was then inoculated on a common agar medium. Thereafter, it was incubated in an incubator for 16 hours. Subsequently, the number of colonies on the medium was counted.
When there were a large number of cells, whole blood was diluted with a normal saline solution by a factor of 10, 100, 1000 or 10000, and the thus diluted solution was inoculated on a common agar medium.

Row | Compound | Number of surviving mice/number of treated mice, 2 hours later (Group A) ([1]; Group A: pre-administration 100 μg/mouse i.p., three hours later Pseudomonas aeruginosa 5.0×10^7 cells/mouse i.p., 2 hours later) | Number of surviving mice/number of treated mice, 4 hours later (Group A) ([1]; Group A: pre-administration 100 μg/mouse i.p., three hours later Pseudomonas aeruginosa 5.0×10^7 cells/mouse i.p., 4 hours later) | Number of surviving mice/number of treated mice, 15 hours later (Group A) ([1]; Group A: pre-administration 100 μg/mouse i.p., three hours later Pseudomonas aeruginosa 5.0×10^7 cells/mouse i.p., 15 hours later) | Number of surviving mice/number of treated mice, 24 hours later (Group A) ([1]; Group A: pre-administration 100 μg/mouse i.p., three hours later Pseudomonas aeruginosa 5.0×10^7 cells/mouse i.p., 24 hours later) | Number of surviving mice/number of treated mice, 48 hours later (Group A) ([1]; Group A: pre-administration 100 μg/mouse i.p., three hours later Pseudomonas aeruginosa 5.0×10^7 cells/mouse i.p., 48 hours later) | Number of surviving mice/number of treated mice, 2 hours later (Group B) ([1]; Group B: Pseudomonas aeruginosa 2.0×10^7 cells/mouse i.p., three hours later test compound 100 μg/mouse i.p., 2 hours later) | Number of surviving mice/number of treated mice, 4 hours later (Group B) ([1]; Group B: Pseudomonas aeruginosa 2.0×10^7 cells/mouse i.p., three hours later test compound 100 μg/mouse i.p., 4 hours later) | Number of surviving mice/number of treated mice, 15 hours later (Group B) ([1]; Group B: Pseudomonas aeruginosa 2.0×10^7 cells/mouse i.p., three hours later test compound 100 μg/mouse i.p., 15 hours later) | Number of surviving mice/number of treated mice, 24 hours later (Group B) ([1]; Group B: Pseudomonas aeruginosa 2.0×10^7 cells/mouse i.p., three hours later test compound 100 μg/mouse i.p., 24 hours later) | Number of surviving mice/number of treated mice, 48 hours later (Group B) ([1]; Group B: Pseudomonas aeruginosa 2.0×10^7 cells/mouse i.p., three hours later test compound 100 μg/mouse i.p., 48 hours later) | amount of IL-6 released from mouse intraperitoneal macrophages ([2]; vehicle approximately 15 pg/ml) | amount of TNF-α released from mouse intraperitoneal macrophages ([2]; vehicle approximately 80 pg/ml) | phagocytic ability of rabbit neutrophils, activity compared with TDCM (rabbit neutrophils [3]) | action to activate the release of active oxygen from rabbit neutrophils, compared with TDCM (rabbit neutrophils [4]) | Pseudomonas aeruginosa cells in mouse blood (colonies) (Pseudomonas aeruginosa)
1 | CCCCCCCCCCC(CCCCCCCCCC)C(=O)OCC1O[C@H](O[C@H]2OC(COC(=O)C(CCCCCCCCCC)CCCCCCCCCC)[C@@H](O)C(O)C2O)C(O)C(O)[C@@H]1O (stereo partly drawn) [Example 1, 6,6′-bis-O-(2-decyldodecanoyl)-α,α′-trehalose] | 3/3 | 3/3 | 2/3 | 2/3 | 2/3 | 3/3 | 3/3 | 3/3 | 1/3 | 1/3 | approximately 200 pg/ml | approximately 1000 pg/ml | approximately 2 times | approximately two times higher than the activity of TDCM | 
2 | CCCCCCCCCC(CCCCCCCCC)CC(=O)OCC1O[C@H](O[C@H]2OC(COC(=O)CC(CCCCCCCCC)CCCCCCCCC)[C@@H](O)C(O)C2O)C(O)C(O)[C@@H]1O (stereo partly drawn) [Example 9, 6,6′-bis-O-(3-nonyldodecanoyl)-α,α′-trehalose] |  |  |  |  |  |  |  |  |  |  |  |  |  |  | not detected
